What is called solubility (thermodynamic) is solubility found after equilibrating the solid with the medium. As usually defined, the EC50 is the midpoint of the concentration-response curve. For orientation: CC50 means the concentration giving 50% cytotoxicity. Read a high CC50 as better tolerance by the cells.

The text below walks through data of article PMC9415646, “Improving Aqueous Solubility and In Vitro Pharmacokinetic Properties of the 3-Nitroimidazo[1,2-a]pyridine Antileishmanial Pharmacophore” (Pharmaceuticals, 2022).

A short description of series [1]: Thermodynamic solubility at pH 7.4 (miniaturized shake-flask). The series is classed as physicochemical. Conditions: phosphate buffer (PBS), aqueous buffer, kinetic from dmso stock, pH 7.4, PBS, 23 °C. As for the experimental part: Thermodynamic solubility at pH 7.4 of compounds was determined according to a miniaturized shake-flask method (Organisation for Economic Cooperation and Development guideline n°105). Phosphate Buffer solutions (pH 7.4, […], ionic strength […]) were prepared from Na2HPO4, KH2PO4 and KCl (Sigma Aldrich, Saint Quentin Fallavier, France); 10 µL of 20 mM stock solution were added to 5 mL glass tubes containing […] buffer (n = 3). The tubes were briefly sonicated and shacked by inversion during 24 h at 23 °C. Then, the tube contents were placed in a microtube which was centrifuged at 12,225× g for 10 min; 100 µL supernatant were mixed with 100 µL acetonitrile in a Greiner UV microplate. Standard solutions were prepared extemporaneously, diluting 20 mM DMSO stock solutions at […]; 5 µL of each working solution were diluted with 995 µL buffer and 100 µL were then mixed in microplates with 100 µL acetonitrile so as to ensure that the final proportions of each solvent in standard solutions and samples remained unchanged. Solubility at pH 7.4 was determined with an Infinite M200Pro (Tecan, Lyon, France) microplate reader in spectrophotometric mode (230 to 450 nm) from the specific λmax of each compound. The calibration curve was obtained from the […] standard solutions of tested compounds at 0, 25, 50, and 100 µM in a 50:50 (vol/vol) mixture of buffer with acetonitrinile/DMSO (99:1; vol/vol). Calibration curves were linear with R^2 > 0.99.

In series [2] the test system is L. infantum promastigotes. Nature of the series: Antileishmanial activity against L. infantum promastigotes (luciferase assay). Format: cell-based. The note with it: Leishmania infantum, 72 h, read-out: EC50 L. infantum Pro.
For series [3], the system named is L. infantum intracellular amastigotes. Nature of the series: Antileishmanial activity on L. infantum intracellular (intra-THP1 macrophage) amastigotes. The series is classed as cell-based. Conditions: Leishmania infantum, THP-1; intramacrophage (THP1) amastigotes, 120 h; read-out: EC50 L. infantum Intra. Ama. As to the method: The undifferentiated THP1 human monocyte cells (acute monocytic leukemia cell line purchased from ATCC, ref TIB-202) were grown in RPMI 1640 medium (Life Technologies, Saint-Aubin, France) supplemented with 10% FCS (Life Technologies, Saint-Aubin, France), 100 U/mL penicillin, 100 µg/mL streptomycin and 2 mM L-glutamine at 37 °C, 5% CO2. The culture was maintained between 3.10^5 and 1.10^6 cells/mL. The in vitro evaluation of the antileishmanial activity on intracellular amastigote forms of the tested compound was assessed as below.
Briefly, 200 μL of THP-1 cells with Phorbol 12-Myristate 13-Acetate (final concentration 50 ng/mL) were seeded in 96-well plates at an average density of 0.77 × 10^5 cells/mL and incubated for 96 h at 37 °C, 5% CO2. Promastigotes were centrifuged at 3000 rpm for 10 min and the supernatant replaced by the same volume of complete RPMI pH 5.4 and incubated for 24 h at 27 °C. Differentiated THP-1 cells were then infected by acidified promastigotes with an infection ratio of twenty parasites for one macrophage and incubated for 24 h at 37 °C, 5% CO2.
• Luciferase activity and determination of EC50 were performed as above.

The nature of series [4]: Cytotoxicity evaluation on HepG2 cell line (MTT). Conditions: human, HepG2 cells. The series is classed as cell-based.
Series [5] in a line: Cytotoxicity on THP-1 cell line (MTT). Format: cell-based. Conditions: human, THP-1 cells, THP1 cell line. An outline of the steps: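 THP-1 cells exposed to compounds for 72 h at 37 °C, then MTT (0.5 mg/mL) for 2 h, absorbance at 570 nm. Viability expressed relative to DMSO-treated cells; CC50 is the mean of three independent experiments.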

In brackets after ≈: the same amount, converted by molar mass. Where only a bound is given, the exact number is not on record here.

In turn, `O=[N+]([O-])c1c(CS(=O)(=O)c2ccc(C(F)(F)F)cc2)nc2c(Sc3ccc(Cl)cc3)cc(Cl)cn12` [Compound 3d, 6-Chloro-8-[(4-Chlorophenyl)thio]-3-Nitro-2-[(4-Trifluoromethylphenylsulfonyl)methyl]imidazo[1,2-a]pyridine] displayed a solubility (thermodynamic) at 24 h in series [1] of 2.5 ± 0.7 µM (≈ 1.41 µg/mL). Further, the figures for the EC50 in series [2] and in series [3] were 3.3 ± 0.4 µM and 4.4 ± 0.2 µM, respectively. Moreover, the CC50 at 72 h is greater than 3.9 µM in series [4] and greater than 50 µM in series [5].
For `O=[N+]([O-])c1c(CS(=O)(=O)CCC(F)(F)F)nc2c(Sc3ccc(Cl)cc3)cc(Cl)cn12` [Compound 3i, 6-Chloro-8-[(4-Chlorophenyl)thio]-3-Nitro-2-[(3,3,3-Trifluoropropylsulfonyl)methyl]imidazo[1,2-a]pyridine] the same measures were 12.4 ± 3 µM (≈ 6.38 µg/mL), 1.4 ± 0.1 µM, 1.2 ± 0.1 µM, greater than 6.2 µM and greater than 50 µM.
